Active and inactive are the calls of the source. No cut-off for these calls is given here. Where only a bound is given, the exact number is not on record here.

Series [1] concerns Rattus norvegicus. The series can be described thus: Inhibition of MDMA-induced behavioral suppression in rat assessed as earning of 20 food pellets at 0.3 mg/kg, ip administered 15 mins before MDMA challenge by food-reinforced operant task method. The format is functional, organism-based. Details: dose 0.3 mg/kg.
Series [2] concerns Rattus norvegicus. The series can be described thus: Toxicity in rat at 1 mg/kg, ip after 15 mins. The format is organism-based. The note with it: in vivo, 0.25 h. Details: dose 1 mg/kg, route intraperitoneal.
The subject of series [3] is Rattus norvegicus. Description: Inhibition of MDMA-induced behavioral suppression in rat assessed as earning of 20 food pellets at 0.1 mg/kg, ip administered 15 mins before MDMA challenge by food-reinforced operant task method. The series is classed as functional, organism-based. Set-up: dose 0.1 mg/kg.
Series [4] addresses 5-hydroxytryptamine receptor 1B (Homo sapiens, UniProt P28222). Description: Displacement of [3H]GR127543 from human 5HT1B receptor. A general note: Displacement assays read how much labelled ligand stays bound in the presence of the test substance.
Series [5] deals with 5-hydroxytryptamine receptor 1D (Homo sapiens, UniProt P28221). Description: Displacement of [3H]GR127543 from human 5HT1D receptor.
Series [6] concerns the target 5-hydroxytryptamine receptor 1E (Homo sapiens, UniProt P28566). Description: Displacement of [3H]5-HT from human 5HT1E receptor.
The target in series [7] is 5-hydroxytryptamine receptor 2A (Homo sapiens, UniProt P28223). Description: Displacement of [3H]Ketanserin from human 5HT2A receptor.
Series [8] concerns the target 5-hydroxytryptamine receptor 2B (Homo sapiens, UniProt P41595). Description: Displacement of [3H]LSD from human 5HT2B receptor.
The target of series [9] is 5-hydroxytryptamine receptor 2C (Homo sapiens, UniProt P28335). The series can be described thus: Displacement of [3H]Mesulergine from human 5HT2C receptor.
The target of series [10] is 5-hydroxytryptamine receptor 3A (Homo sapiens, UniProt P46098). Description: Displacement of [3H]LY278584 from human 5HT3 receptor.
Series [11] addresses 5-hydroxytryptamine receptor 5A (Homo sapiens, UniProt P47898). The series can be described thus: Displacement of [3H]LSD from human 5HT5A receptor.
The target of series [12] is 5-hydroxytryptamine receptor 6 (Homo sapiens, UniProt P50406). Description: Displacement of [3H]LSD from human 5HT6 receptor.
Series [13] concerns the target 5-hydroxytryptamine receptor 7 (Homo sapiens, UniProt P34969). Description: Displacement of [3H]LSD from human 5HT7 receptor.
The target of series [14] is Alpha-1A adrenergic receptor (Homo sapiens, UniProt P35348). Description: Displacement of [3H]Prazosin from human adrenergic alpha1A receptor.
Chain of Alpha-1A adrenergic receptor (P35348 whole entry): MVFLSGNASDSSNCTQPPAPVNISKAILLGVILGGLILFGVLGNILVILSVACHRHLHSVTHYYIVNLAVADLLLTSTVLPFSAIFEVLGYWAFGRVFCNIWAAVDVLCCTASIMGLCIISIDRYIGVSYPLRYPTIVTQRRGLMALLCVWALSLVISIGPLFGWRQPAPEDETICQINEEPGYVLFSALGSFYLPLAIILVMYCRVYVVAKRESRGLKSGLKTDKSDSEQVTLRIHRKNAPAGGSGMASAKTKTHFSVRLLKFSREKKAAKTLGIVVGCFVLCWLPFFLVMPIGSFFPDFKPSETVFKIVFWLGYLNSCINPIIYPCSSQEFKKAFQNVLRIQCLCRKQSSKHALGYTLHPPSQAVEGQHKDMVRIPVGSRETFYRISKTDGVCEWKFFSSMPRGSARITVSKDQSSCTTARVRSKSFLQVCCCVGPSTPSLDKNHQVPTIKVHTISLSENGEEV
For series [15], the target named is Alpha-1B adrenergic receptor (Homo sapiens, UniProt P35368). Description: Displacement of [3H]Prazosin from human adrenergic Alpha-1B receptor.
For series [16], the target named is Alpha-1D adrenergic receptor (Homo sapiens, UniProt P25100). The series can be described thus: Binding affinity to human adrenergic Alpha-1D receptor.
For series [17], the target named is Alpha-2A adrenergic receptor (Homo sapiens, UniProt P08913). Description: Displacement of [3H]Clonidine from human adrenergic alpha2A receptor.
Series [18] has as its target Alpha-2B adrenergic receptor (Homo sapiens, UniProt P18089). The series can be described thus: Displacement of [3H]Clonidine from human adrenergic alpha2B receptor.
Series [19] has as its target Alpha-2C adrenergic receptor (Homo sapiens, UniProt P18825). The series can be described thus: Displacement of [3H]Clonidine from human adrenergic Alpha-2C receptor.
The target in series [20] is Beta-1 adrenergic receptor (Homo sapiens, UniProt P08588). The series can be described thus: Displacement of [125I]Iodopindolol from human adrenergic beta-1 receptor.
Series [21] has as its target Beta-2 adrenergic receptor (Homo sapiens, UniProt P07550). Description: Displacement of [125I]Iodopindolol from human adrenergic beta2 receptor.
Series [22] addresses Beta-3 adrenergic receptor (Homo sapiens, UniProt P13945). Description: Displacement of [125I]Iodopindolol from human adrenergic beta3 receptor.
Another series deals with D(1A) dopamine receptor (Homo sapiens, UniProt P21728). The series can be described thus: Displacement of [3H]SCH233930 from human dopamine D1 receptor.
Another series deals with D(2) dopamine receptor (Homo sapiens, UniProt P14416). Description: Displacement of [3H]N-methylspiperone from human dopamine D2 receptor.
In another series the target is D(3) dopamine receptor (Homo sapiens, UniProt P35462). Description: Displacement of [3H]N-methylspiperone from human dopamine D3 receptor.
Chain of D(3) dopamine receptor (P35462 whole entry): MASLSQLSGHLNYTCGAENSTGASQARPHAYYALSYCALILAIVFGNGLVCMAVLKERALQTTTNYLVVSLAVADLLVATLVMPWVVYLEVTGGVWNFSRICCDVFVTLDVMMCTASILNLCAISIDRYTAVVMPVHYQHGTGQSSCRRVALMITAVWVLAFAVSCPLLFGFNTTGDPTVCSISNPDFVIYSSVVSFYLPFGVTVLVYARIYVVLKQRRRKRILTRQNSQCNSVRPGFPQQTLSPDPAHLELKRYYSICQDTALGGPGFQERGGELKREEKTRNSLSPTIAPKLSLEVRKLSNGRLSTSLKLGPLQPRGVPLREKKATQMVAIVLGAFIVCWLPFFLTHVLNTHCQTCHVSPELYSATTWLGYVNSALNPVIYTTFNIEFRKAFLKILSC
Another series has as its target D(4) dopamine receptor (Homo sapiens, UniProt P21917). The series can be described thus: Displacement of [3H]N-methylspiperone from human dopamine D4 receptor.
The target of another series is D(1B) dopamine receptor (Homo sapiens, UniProt P21918). Description: Displacement of [3H]SCH233930 from human dopamine D5 receptor.
Chain of D(1B) dopamine receptor (P21918 whole entry): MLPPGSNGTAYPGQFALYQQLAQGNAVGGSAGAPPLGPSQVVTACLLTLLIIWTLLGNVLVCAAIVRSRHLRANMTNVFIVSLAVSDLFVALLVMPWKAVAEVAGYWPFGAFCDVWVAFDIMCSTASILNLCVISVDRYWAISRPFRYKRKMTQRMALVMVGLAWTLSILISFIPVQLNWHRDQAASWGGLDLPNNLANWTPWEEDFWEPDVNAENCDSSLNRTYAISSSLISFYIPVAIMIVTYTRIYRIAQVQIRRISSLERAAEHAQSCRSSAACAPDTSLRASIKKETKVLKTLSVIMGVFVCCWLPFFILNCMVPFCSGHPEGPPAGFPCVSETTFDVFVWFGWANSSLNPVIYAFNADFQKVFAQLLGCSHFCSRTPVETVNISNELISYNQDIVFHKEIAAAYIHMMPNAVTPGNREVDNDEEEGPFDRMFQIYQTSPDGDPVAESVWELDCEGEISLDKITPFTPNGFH
For series [23], the target named is Sodium-dependent dopamine transporter (Homo sapiens, UniProt Q01959). Description: Displacement of [3H]WIN-35428 from human DAT.
Chain of Sodium-dependent dopamine transporter (Q01959 whole entry): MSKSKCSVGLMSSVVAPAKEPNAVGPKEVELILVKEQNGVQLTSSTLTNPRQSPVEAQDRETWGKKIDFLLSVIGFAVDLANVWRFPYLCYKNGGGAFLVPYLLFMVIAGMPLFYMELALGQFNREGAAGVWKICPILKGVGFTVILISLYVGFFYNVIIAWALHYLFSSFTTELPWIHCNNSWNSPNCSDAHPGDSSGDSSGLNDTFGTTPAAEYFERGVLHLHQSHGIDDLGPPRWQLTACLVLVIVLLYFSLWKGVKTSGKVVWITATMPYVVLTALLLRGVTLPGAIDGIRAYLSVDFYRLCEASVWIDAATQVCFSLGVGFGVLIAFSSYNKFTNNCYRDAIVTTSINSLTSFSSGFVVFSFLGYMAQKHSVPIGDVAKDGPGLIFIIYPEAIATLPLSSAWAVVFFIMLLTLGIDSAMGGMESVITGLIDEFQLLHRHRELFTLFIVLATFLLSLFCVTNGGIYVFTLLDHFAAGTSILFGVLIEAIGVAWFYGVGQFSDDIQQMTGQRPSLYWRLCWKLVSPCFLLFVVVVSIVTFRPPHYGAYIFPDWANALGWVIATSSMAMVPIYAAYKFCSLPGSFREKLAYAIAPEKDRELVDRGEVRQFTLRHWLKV
The target in series [24] is Sodium-dependent serotonin transporter (Homo sapiens, UniProt P31645). Description: Displacement of [3H]Citalopram from human SERT.
Series [25] addresses Sodium-dependent noradrenaline transporter (Homo sapiens, UniProt P23975). Description: Displacement of [3H]Nisoxetine from human NET.
Series [26] concerns the target Delta-type opioid receptor (Homo sapiens, UniProt P41143). The series can be described thus: Displacement of [3H]DADLE from human DOR.
Series [27] deals with Kappa-type opioid receptor (Homo sapiens, UniProt P41145). Description: Displacement of [3H]U69593 from human KOR.
Chain of Kappa-type opioid receptor (P41145 whole entry): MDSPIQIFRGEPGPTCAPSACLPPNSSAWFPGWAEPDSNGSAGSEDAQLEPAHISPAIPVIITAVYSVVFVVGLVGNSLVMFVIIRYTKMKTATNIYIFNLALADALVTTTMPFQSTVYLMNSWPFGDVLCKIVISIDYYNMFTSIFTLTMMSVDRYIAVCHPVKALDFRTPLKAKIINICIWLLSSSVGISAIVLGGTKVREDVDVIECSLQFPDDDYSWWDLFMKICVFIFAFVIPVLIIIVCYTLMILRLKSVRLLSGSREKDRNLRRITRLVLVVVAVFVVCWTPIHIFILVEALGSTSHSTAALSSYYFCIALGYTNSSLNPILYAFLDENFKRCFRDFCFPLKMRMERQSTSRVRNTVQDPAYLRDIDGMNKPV
The target in the next series is Mu-type opioid receptor (Homo sapiens, UniProt P35372). Description: Displacement of [3H]DAMGO from human MOR.
In another series the target is Histamine H1 receptor (Homo sapiens, UniProt P35367). Description: Displacement of [3H]Pyrilamine from human histamine H1 receptor.
The target in another series is Histamine H2 receptor (Homo sapiens, UniProt P25021). The series can be described thus: Displacement of [3H]Tiotidine from human histamine H2 receptor.
The target of another series is Histamine H3 receptor (Homo sapiens, UniProt Q9Y5N1). Description: Displacement of [3H]alpha-methylhistamine from human histamine H3 receptor.
Chain of Histamine H3 receptor (Q9Y5N1 whole entry): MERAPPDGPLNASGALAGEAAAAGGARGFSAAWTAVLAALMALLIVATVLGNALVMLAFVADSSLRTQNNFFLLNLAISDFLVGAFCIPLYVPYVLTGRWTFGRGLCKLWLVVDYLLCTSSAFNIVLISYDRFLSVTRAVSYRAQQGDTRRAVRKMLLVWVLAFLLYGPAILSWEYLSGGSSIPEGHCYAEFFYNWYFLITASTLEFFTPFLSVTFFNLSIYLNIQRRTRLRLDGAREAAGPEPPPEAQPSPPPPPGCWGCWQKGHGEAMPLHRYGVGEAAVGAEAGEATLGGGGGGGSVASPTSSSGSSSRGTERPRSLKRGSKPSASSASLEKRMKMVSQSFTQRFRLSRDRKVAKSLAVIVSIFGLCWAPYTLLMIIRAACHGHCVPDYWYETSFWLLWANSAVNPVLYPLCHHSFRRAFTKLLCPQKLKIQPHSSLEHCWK
The target in another series is Histamine H4 receptor (Homo sapiens, UniProt Q9H3N8). Description: Displacement of [3H]Histamine from human histamine H4 receptor.
Series [28] addresses Muscarinic acetylcholine receptor M1 (Homo sapiens, UniProt P11229). Description: Displacement of [3H]QNB from human muscarinic M1 receptor.
In series [29] the target is Muscarinic acetylcholine receptor M2 (Homo sapiens, UniProt P08172). Description: Displacement of [3H]QNB from human muscarinic M2 receptor.
Chain of Muscarinic acetylcholine receptor M2 (P08172 whole entry): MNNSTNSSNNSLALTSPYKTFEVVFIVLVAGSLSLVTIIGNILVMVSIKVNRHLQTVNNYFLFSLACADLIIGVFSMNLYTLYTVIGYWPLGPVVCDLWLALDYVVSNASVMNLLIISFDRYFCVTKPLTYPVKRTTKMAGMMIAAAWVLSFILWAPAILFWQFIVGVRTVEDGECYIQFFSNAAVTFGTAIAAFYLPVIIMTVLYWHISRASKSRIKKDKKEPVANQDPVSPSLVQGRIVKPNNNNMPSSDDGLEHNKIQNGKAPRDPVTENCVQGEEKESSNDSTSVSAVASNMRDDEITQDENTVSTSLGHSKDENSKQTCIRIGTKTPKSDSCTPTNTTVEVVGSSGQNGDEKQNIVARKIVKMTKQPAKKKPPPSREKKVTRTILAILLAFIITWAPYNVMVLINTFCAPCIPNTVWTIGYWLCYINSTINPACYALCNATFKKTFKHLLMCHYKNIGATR
Series [30] deals with Muscarinic acetylcholine receptor M3 (Homo sapiens, UniProt P20309). The series can be described thus: Displacement of [3H]QNB from human muscarinic M3 receptor.
Series [31] deals with Muscarinic acetylcholine receptor M4 (Homo sapiens, UniProt P08173). Description: Displacement of [3H]QNB from human muscarinic M4 receptor.
Series [32] in a line: Displacement of [3H]DTG from human sigma 2 receptor.

Chain of Beta-3 adrenergic receptor (P13945 whole entry): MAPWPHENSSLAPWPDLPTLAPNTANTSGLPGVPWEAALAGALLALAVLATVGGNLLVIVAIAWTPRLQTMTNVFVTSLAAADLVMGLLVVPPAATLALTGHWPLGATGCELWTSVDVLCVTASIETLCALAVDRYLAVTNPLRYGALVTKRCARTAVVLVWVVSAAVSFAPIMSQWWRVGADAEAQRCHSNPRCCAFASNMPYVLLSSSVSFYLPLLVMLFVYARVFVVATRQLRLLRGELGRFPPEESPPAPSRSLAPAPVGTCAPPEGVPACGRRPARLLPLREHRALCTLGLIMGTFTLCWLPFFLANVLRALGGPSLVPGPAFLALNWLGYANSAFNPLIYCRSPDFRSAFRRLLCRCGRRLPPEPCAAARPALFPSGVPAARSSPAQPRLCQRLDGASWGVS
Chain of D(4) dopamine receptor (P21917 whole entry): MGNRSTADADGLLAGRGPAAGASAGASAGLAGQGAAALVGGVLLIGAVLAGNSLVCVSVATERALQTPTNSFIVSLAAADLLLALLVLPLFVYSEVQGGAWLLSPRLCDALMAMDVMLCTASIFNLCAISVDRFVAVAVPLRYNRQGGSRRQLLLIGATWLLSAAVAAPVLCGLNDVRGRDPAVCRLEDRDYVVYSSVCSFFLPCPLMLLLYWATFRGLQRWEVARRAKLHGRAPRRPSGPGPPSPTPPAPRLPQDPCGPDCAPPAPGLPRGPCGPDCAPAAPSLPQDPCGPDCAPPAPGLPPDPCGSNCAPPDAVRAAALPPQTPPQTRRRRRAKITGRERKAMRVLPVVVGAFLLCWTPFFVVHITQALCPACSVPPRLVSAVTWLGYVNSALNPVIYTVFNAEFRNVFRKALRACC
Chain of Muscarinic acetylcholine receptor M1 (P11229 whole entry): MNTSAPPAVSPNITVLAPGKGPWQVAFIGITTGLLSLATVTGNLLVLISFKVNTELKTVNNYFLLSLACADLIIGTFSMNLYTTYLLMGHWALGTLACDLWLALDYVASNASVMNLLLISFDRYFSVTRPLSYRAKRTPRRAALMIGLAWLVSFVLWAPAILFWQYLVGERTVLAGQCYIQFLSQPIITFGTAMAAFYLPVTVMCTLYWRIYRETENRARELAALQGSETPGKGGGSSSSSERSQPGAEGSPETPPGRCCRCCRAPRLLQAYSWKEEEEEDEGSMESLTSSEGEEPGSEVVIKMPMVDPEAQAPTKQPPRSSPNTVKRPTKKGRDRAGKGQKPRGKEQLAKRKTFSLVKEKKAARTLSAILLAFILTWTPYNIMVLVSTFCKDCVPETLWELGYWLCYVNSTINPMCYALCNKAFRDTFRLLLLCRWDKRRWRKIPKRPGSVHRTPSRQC
Chain of 5-hydroxytryptamine receptor 5A (P47898 whole entry): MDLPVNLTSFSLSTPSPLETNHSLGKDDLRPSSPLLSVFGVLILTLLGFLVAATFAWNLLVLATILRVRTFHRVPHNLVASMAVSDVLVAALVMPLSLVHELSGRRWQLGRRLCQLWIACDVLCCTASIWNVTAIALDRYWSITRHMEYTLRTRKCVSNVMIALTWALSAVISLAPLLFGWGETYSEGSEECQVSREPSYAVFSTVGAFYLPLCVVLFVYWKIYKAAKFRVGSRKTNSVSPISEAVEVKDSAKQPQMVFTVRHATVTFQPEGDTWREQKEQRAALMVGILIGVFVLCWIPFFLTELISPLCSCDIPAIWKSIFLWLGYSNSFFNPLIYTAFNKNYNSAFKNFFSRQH

On to `O=C(c1ccc(F)cc1)C1CCN(CCn2c(=O)[nH]c3ccccc3c2=O)CC1` [KETANSERIN], for which the outcome with Rattus norvegicus [1] and in the series on Rattus norvegicus [3] was Active. Moreover, the Activity entry in the series with Rattus norvegicus [2] is “Toxic”.
What is called Ki is the dissociation constant of the complex between target and ligand, obtained from inhibition or displacement. Low readings indicate higher affinity, high ones lower affinity. Regarding `COc1cc2c3c(c1OC)-c1cc4c(cc1CC3N(C)CC2)OCO4` (racemic) [NANTENINE], the Ki in series [4] is 100 nM; in series [5], 49 nM; in series [6], above 10000 nM; in series [7], 832 nM; in series [8], 543 nM; in series [9], 1070 nM. The Ki is above 10000 nM in series [10]; 2220 nM in series [11]; 257 nM in series [12]; 67 nM in series [13]; 2 nM in series [14]; 1190 nM in series [15]. The Ki in series [16] was 340 nM; in series [17] it was 1290 nM; in [18], 252 nM; in series [19] it was 181 nM; in [20], 8570 nM; in [21], above 10000 nM. Moreover, the inhibition constant (Ki) in [22] is above 10000 nM; at D(1A) dopamine receptor, 895 nM; at D(2) dopamine receptor, 858 nM; at D(3) dopamine receptor, 309 nM; on D(4) dopamine receptor, 262 nM; at D(1B) dopamine receptor, 2400 nM. The Ki in series [23] is above 10000 nM; in series [24], 244 nM; in [25] it was above 10000 nM; in series [26], above 10000 nM; in series [27], above 10000 nM; at Mu-type opioid receptor, 7260 nM. For the same compound, the Ki on Histamine H1 receptor was above 10000 nM; at Histamine H2 receptor it was 672 nM; on Histamine H3 receptor, above 10000 nM; on Histamine H4 receptor, above 10000 nM; in series [28], above 10000 nM; in series [29], above 10000 nM. The Ki in [30], in series [31] and in [32] was above 10000 nM throughout.

(Values after ChEMBL document CHEMBL1153197, “Synthetic studies and pharmacological evaluations on the MDMA ('Ecstasy') antagonist nantenine” (Bioorg Med Chem Lett, 2010).)
